According to ChEMBL document CHEMBL3397012, “Synthesis and biological evaluation of 4-nitroindole derivatives as 5-HT2A receptor antagonists” (Bioorg Med Chem, 2015):

How the values were obtained:
[1] = target: T1, 5-hydroxytryptamine receptor 6 (Homo sapiens, UniProt P50406); experiment: Inhibition of human recombinant 5-HT6 receptor expressed in HEK293 cells assessed as inhibition of 5-HT-induced increase in […] pretreated at 10 uM for 10 mins by cAMP accumulation assay; format: functional, cell-based
T1 sequence (P50406 whole entry): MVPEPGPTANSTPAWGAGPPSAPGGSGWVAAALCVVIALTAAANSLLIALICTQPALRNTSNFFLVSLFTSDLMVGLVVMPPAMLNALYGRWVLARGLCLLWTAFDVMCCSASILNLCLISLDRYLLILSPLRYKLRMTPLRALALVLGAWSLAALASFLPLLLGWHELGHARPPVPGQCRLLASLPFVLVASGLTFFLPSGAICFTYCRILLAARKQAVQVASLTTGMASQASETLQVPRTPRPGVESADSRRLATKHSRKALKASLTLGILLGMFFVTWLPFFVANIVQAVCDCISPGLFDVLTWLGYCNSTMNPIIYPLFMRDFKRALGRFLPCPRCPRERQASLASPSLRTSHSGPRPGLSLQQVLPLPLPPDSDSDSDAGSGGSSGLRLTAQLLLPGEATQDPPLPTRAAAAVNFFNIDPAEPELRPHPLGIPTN

[2] = target: T2, 5-hydroxytryptamine receptor 2A (Homo sapiens, UniProt P28223); experiment: Displacement of [3H]Ketanserin from human recombinant 5-HT2A receptor expressed in CHO-K1 cells after 15 mins; format: cell-based
T2 sequence (P28223 whole entry): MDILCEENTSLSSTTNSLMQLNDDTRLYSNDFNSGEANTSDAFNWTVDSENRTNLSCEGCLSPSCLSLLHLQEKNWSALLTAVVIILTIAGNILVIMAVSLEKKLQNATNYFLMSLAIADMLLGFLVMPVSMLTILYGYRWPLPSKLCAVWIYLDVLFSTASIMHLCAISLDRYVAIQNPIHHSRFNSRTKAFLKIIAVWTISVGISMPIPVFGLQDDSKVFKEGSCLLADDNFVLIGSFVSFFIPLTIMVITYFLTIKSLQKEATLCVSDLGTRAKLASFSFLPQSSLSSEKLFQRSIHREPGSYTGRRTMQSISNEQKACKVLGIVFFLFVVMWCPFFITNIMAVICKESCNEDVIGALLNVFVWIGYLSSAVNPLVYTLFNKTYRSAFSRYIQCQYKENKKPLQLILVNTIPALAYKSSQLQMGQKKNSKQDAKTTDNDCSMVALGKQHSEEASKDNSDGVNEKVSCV

[3] = target: T1, 5-hydroxytryptamine receptor 6; experiment: Inhibition of human recombinant 5-HT6 receptor expressed in HEK293 cells assessed as inhibition of 5-HT-induced increase in […] pretreated for 10 mins by cAMP accumulation assay; format: functional, cell-based
[4] = target: T3, 5-hydroxytryptamine receptor 2C (Homo sapiens) (UniProt P28335); experiment: Displacement of [3H]Mesulergine from human recombinant 5-HT2C receptor expressed in CHO-K1 cells at 10 uM after 15 mins; format: cell-based
T3 sequence (whole entry): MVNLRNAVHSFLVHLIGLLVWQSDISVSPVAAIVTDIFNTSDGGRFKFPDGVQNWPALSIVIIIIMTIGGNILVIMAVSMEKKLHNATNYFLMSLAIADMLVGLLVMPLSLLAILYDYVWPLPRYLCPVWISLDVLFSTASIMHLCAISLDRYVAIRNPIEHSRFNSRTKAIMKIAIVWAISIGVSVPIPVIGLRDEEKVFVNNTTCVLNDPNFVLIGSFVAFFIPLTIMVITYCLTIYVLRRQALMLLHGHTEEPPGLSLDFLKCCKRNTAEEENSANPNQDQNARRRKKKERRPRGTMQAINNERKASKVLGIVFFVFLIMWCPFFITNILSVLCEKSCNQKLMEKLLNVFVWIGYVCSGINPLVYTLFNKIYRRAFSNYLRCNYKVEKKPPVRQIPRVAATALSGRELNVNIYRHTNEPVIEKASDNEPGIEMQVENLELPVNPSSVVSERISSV

[5] = target: T2, 5-hydroxytryptamine receptor 2A; experiment: Displacement of [3H]Ketanserin from human recombinant 5-HT2A receptor expressed in CHO-K1 cells at 10 uM after 15 mins; format: cell-based
[6] = target: T4, 5-hydroxytryptamine receptor 2C (Homo sapiens, UniProt P28335); experiment: Displacement of [3H]Mesulergine from human recombinant 5-HT2C receptor expressed in CHO-K1 cells after 15 mins; format: cell-based
T4 sequence (P28335 whole entry): T3 sequence (whole entry)

inhibition [1]	IC50 [2]	IC50 [3]	inhibition [4]	inhibition [5]	IC50 [6]	Compound
62.4%	247 nM	6340 nM	66.2%	85.2%		CN(C)/C=N/N=C/c1cn(S(=O)(=O)c2ccc(I)cc2)c2cccc([N+](=O)[O-])c12
75.2%	253 nM	2120 nM	82.3%	88.3%	480 nM	Cc1ccc(S(=O)(=O)n2cc(/C=N/N=C/N(C)C)c3c([N+](=O)[O-])cccc32)cc1
63.9%	702 nM	4970 nM	55.5%	94.2%		CN(C)/C=N/N=C/c1cn(S(=O)(=O)c2ccc(F)cc2)c2cccc([N+](=O)[O-])c12
73.9%	555 nM	2960 nM	64.2%	94.6%		CN(C)/C=N/N=C/c1cn(S(=O)(=O)c2cccc3ccccc23)c2cccc([N+](=O)[O-])c12
78.1%	329 nM	1830 nM	48.4%	83.9%		CN(C)/C=N/N=C/c1cn(S(=O)(=O)c2ccccc2)c2cccc([N+](=O)[O-])c12
		3900 nM				CN1CCN(c2nc3ccc(NS(=O)(=O)c4cccc5ccccc45)cc3s2)CC1
78.6%	205 nM	740 nM	67.8%	90.7%	1040 nM	COc1ccc(S(=O)(=O)n2cc(/C=N/N=C/N(C)C)c3c([N+](=O)[O-])cccc32)cc1
11.3%						CCCCc1ccc(S(=O)(=O)n2cc(/C=N/N=C/N(C)C)c3c([N+](=O)[O-])cccc32)cc1
78.2%	479 nM	1400 nM	48.1%	84.4%		COc1ccc(OC)c(S(=O)(=O)n2cc(/C=N/N=C/N(C)C)c3c([N+](=O)[O-])cccc32)c1
87.7%	1590 nM	2440 nM	44.9%	75.9%		COc1ccc(Cl)cc1S(=O)(=O)n1cc(/C=N/N=C/N(C)C)c2c([N+](=O)[O-])cccc21
68%	433 nM	2530 nM	80.1%	88%	463 nM	CN(C)/C=N/N=C/c1cn(S(=O)(=O)c2ccc3ccccc3c2)c2cccc([N+](=O)[O-])c12
